Among the data in patent US20240360114A1 (SIRONAX LTD., priority 2021, published 2024) are EC50 values, retold here.

Molecules are shown by their SMILES.

The EC50 is the concentration that produces a half-maximal response. Low values mean higher potency in that assay, high ones lower potency in that assay.

For this test, the system named is HT-1080 cells. The experiment in a line: HT-1080 cell viability assay (ferroptosis induced by RSL3, Cell Titer-Glo). The class given is cell-based. The conditions noted are these: Homo sapiens, HT-1080, 20 h, ferroptosis inducer RSL3, 20 hours, ferroptosis inhibitory activity, Table 2. The gist of the method: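 EC50 fitted by sigmoidal dose-response regression on luminescent viability data normalized to untreated cells. Compounds ran as a 10-point, 3-fold series from 1.1 μM alongside RSL3 for 20 hours, after overnight seeding.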
Background: Cellular ATP, detected with luciferase, serves as a proxy for viable cell number.
For `CC[C@@H]1CN(c2ccc(NC3CC4(CC(N)C4)C3)c(C)n2)C[C@@H](C)O1` (stereo partly drawn) [Compound 547, N^2-(6-((2R,6R)-2-ethyl-6-methylmorpholino)-2-methylpyridin-3-yl)spiro[3.3]heptane-2,6-diamine], the concentration giving a half-maximal response (EC50) lay within 0.1 to 100 nM.

In turn, `CCc1ccc(NC2CCC(N)CC2)cc1C` (centres unmarked) [Compound 304, N1-(4-ethyl-3-methylphenyl)cyclohexane-1,4-diamine] yielded an EC50 of 100 to 1000 nM. Then `CC1(C)CCC(c2ccc(NC3CCC(CCN)CC3)cc2)CC1` (centres unmarked) [Compound 118, N-(4-(2-aminoethyl)cyclohexyl)-4-(4,4-dimethylcyclohexyl)aniline], with 0.1 to 100 nM; and `COC(=O)C1CCC(Nc2ccc(N3CCC(C(F)(F)F)CC3)cc2)CC1` (centres unmarked) [Compound 6A, methyl 4-((4-(4-(trifluoromethyl)piperidin-1-yl)phenyl)amino)cyclohexane-1-carboxylate], with 0.1 to 100 nM. Regarding `O=C1CC(C(=O)NC2CCC(Nc3ccc(C4CCCCC4)cc3)CC2)CN1` (centres unmarked) [Compound 110, N-(4-((4-cyclohexylphenyl)amino)cyclohexyl)-5-oxopyrrolidine-3-carboxamide], the concentration giving a half-maximal response (EC50) is 100 to 1000 nM. Then `CC1(C)CCC(C)(C)c2cc(NC3CCC(N)CC3)ccc21` (centres unmarked) [Compound 265, N1-(5,5,8,8-tetramethyl-5,6,7,8-tetrahydronaphthalen-2-yl)cyclohexane-1,4-diamine], with 0.1 to 100 nM; and `N[C@H]1CC[C@H](Nc2ccc(N3CCC(C(F)(F)F)CC3)cc2)CC1` [Compound 354, (1r,4r)-N1-(4-(4-(trifluoromethyl)piperidin-1-yl)phenyl)cyclohexane-1,4-diamine], with 0.1 to 100 nM; and `CC(C)C1CCN(c2ncc(NC3CCC(N)C3)cn2)CC1` (centres unmarked) [Compound 38, N1-(2-(4-isopropylpiperidin-1-yl)pyrimidin-5-yl)cyclopentane-1,3-diamine], with 0.1 to 100 nM.
